Laboratory results: ChEMBL document CHEMBL3407484, “Evolution in medicinal chemistry of ursolic acid derivatives as anticancer agents” (Eur J Med Chem, 2015)

Tests used:
Type in all cases: functional, cell-based
[1] = Cytotoxicity against human SKOV3 cells by MTT assay; conditions: SK-OV-3
HeLa = assay: Cytotoxicity against human HeLa cells by MTT assay
[2] = Cytotoxicity against human BGC823 cells by MTT assay; conditions: BGC-823
HepG2 = assay: Cytotoxicity against human HepG2 cells by MTT assay

CC(=O)O[C@H]1CC[C@]2(C)[C@H]3CC=C4[C@@H]5[C@@H](C)[C@H](C)CC[C@]5(C(=O)NCCCN5CCOCC5)CC[C@@]4(C)[C@]3(C)CC[C@H]2C1(C)C
IC50 [1]: 7.4 µM | IC50 (HeLa): 2.71 µM | IC50 [2]: 4.46 µM

C[C@H]1[C@H](C)CC[C@]2(C(=O)O)CC[C@]3(C)C(=CC[C@@H]4[C@@]5(C)CC[C@H](OC(=O)CCC(=O)OCCOc6no[n+]([O-])c6S(=O)(=O)c6ccccc6)C(C)(C)[C@@H]5CC[C@]43C)[C@H]12
IC50 (HepG2): 3.2 µM
